Test results reported in patent publication US8129327B2, “Packaging for high moisture bar soap” (The Procter & Gamble Company, priority 2006, dated 2012).

What was measured:
aspergillus sydowii = experiment: inhibition of mold growth on paperboard package containing high moisture bar soap; settings: fungicide-treated paperboard package containing high moisture bar soap
Text: (§1) The present invention further relates to a method of inhibiting the growth of mold, especially certain species of mold such as aspergillus sydowii and/or penicillium chrysogenum, that can grow on a paperboard package containing a high moisture bar soap composition.
(§2) Such a fungicide material is commercially available from Intace S.A. under the tradename INTACE B-6773.

penicillium chrysogenum = experiment: as above; settings: fungicide-treated paperboard package containing high moisture bar soap
Text: as §1, §2

Compound: COC(=O)Nc1nc2ccccc2[nH]1 [carbendazim]
- inhibition of the growth of mold on paperboard packaging (aspergillus sydowii): typically resistant
- inhibition of the growth of mold on paperboard packaging (penicillium chrysogenum): typically resistant
